In PubChem BioAssay AID256 (DTP/NCI, 2004):
Values joined by “and” are separate entries in the source; they are usually repeats but may differ in a detail not shown here. Equal entries are not always repeated. Toxic doses and inconclusive results are not listed.

Test system: CD2F1 mice, L1210 leukemia ip, survival T/C
Experiment: NCI In Vivo Anticancer Drug Screen. Data for tumor model L1210 Leukemia (intraperitoneal) in CD2F1 (CDF1) mice
Settings: higher = longer survival
Outline: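 Mice carrying a transplanted tumor received test compound or vehicle alone. The value is the measurement in the treated group divided by that in the vehicle-treated control group.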

[1] = endpoint: mean survival time, dose: 100.0 mg/kg/injection, schedule: Q04DX003 (ip), vehicle: saline with Tween-80
[2] = endpoint: mean survival time, dose: 200.0 mg/kg/injection, schedule: Q04DX003 (ip), vehicle: saline with Tween-80
[3] = endpoint: mean survival time, dose: 400.0 mg/kg/injection, schedule: Q04DX003 (ip), vehicle: saline with Tween-80
[4] = endpoint: mean survival time, dose: 100.0 mg/kg/injection, schedule: Q01DX009 (ip), vehicle: saline with Tween-80
[5] = endpoint: mean survival time, dose: 200.0 mg/kg/injection, schedule: Q01DX009 (ip), vehicle: saline with Tween-80
[6] = endpoint: mean survival time, dose: 400.0 mg/kg/injection, schedule: Q01DX009 (ip), vehicle: saline with Tween-80

O=c1n(CC2CO2)c(=O)n(CC2CO2)n1CC1CO1 (configuration not stated)
T/C (endpoint: median survival time, dose: 1.5 mg/kg/injection, schedule: Q01DX009 (ip), vehicle: saline): 113 % of control
T/C (endpoint: median survival time, dose: 1.5 mg/kg/injection, schedule: Q03HX024 (ip), vehicle: saline): 121 % of control
T/C (endpoint: median survival time, dose: 3.0 mg/kg/injection, schedule: Q03HX024 (ip), vehicle: saline): 195 % of control
T/C (endpoint: median survival time, dose: 6.0 mg/kg/injection, schedule: Q01DX009 (ip), vehicle: saline): 182 % of control
T/C (endpoint: median survival time, dose: 6.0 mg/kg/injection, schedule: Q03HX024 (ip), vehicle: saline): 253 % of control
T/C (endpoint: median survival time, dose: 6.25 mg/kg/injection, schedule: Q01DX009 (ip), vehicle: saline): 168 % of control and 277 % of control
T/C (endpoint: median survival time, dose: 7.5 mg/kg/injection, schedule: Q01DX003 (iv), vehicle: saline): 107 % of control
T/C (endpoint: median survival time, dose: 7.5 mg/kg/injection, schedule: Q01DX005 (ip), vehicle: saline): 151 % of control
T/C (endpoint: median survival time, dose: 10.0 mg/kg/injection, schedule: Q01DX005 (ip), vehicle: saline): 192 % of control
T/C (endpoint: median survival time, dose: 12.0 mg/kg/injection, schedule: Q01DX009 (ip), vehicle: saline): 365 % of control
T/C (endpoint: median survival time, dose: 12.0 mg/kg/injection, schedule: Q03HX008 (ip), vehicle: saline): 86 % of control
T/C (endpoint: median survival time, dose: 12.0 mg/kg/injection, schedule: Q03HX024 (ip), vehicle: saline): 106 % of control
T/C (endpoint: median survival time, dose: 12.5 mg/kg/injection, schedule: Q01DX009 (ip), vehicle: saline): 231 % of control and 277 % of control
T/C (endpoint: median survival time, dose: 15.0 mg/kg/injection, schedule: Q01DX005 (ip), vehicle: saline): 210 % of control and 240 % of control
T/C (endpoint: median survival time, dose: 15.0 mg/kg/injection, schedule: Q04DX003 (ip), vehicle: saline): 182 % of control
T/C (endpoint: median survival time, dose: 15.0 mg/kg/injection, schedule: Q08DX002 (ip), vehicle: saline): 159 % of control
T/C (endpoint: median survival time, dose: 24.0 mg/kg/injection, schedule: Q01DX009 (ip), vehicle: saline): 365 % of control
T/C (endpoint: median survival time, dose: 25.0 mg/kg/injection, schedule: Q01DX001 (iv), vehicle: saline): 120 % of control
T/C (endpoint: median survival time, dose: 25.0 mg/kg/injection, schedule: Q01DX009 (ip), vehicle: saline): 121 % of control and 277 % of control
T/C (endpoint: median survival time, dose: 30.0 mg/kg/injection, schedule: Q01DX001 (ip), vehicle: saline): 195 % of control
T/C (endpoint: median survival time, dose: 30.0 mg/kg/injection, schedule: Q01DX003 (iv), vehicle: saline): 171 % of control
T/C (endpoint: median survival time, dose: 30.0 mg/kg/injection, schedule: Q01DX005 (ip), vehicle: saline): 92 % of control
T/C (endpoint: median survival time, dose: 30.0 mg/kg/injection, schedule: Q04DX003 (ip), vehicle: saline): 731 % of control
T/C (endpoint: median survival time, dose: 30.0 mg/kg/injection, schedule: Q08DX002 (ip), vehicle: saline): 198 % of control
T/C (endpoint: median survival time, dose: 40.0 mg/kg/injection, schedule: Q01DX001 (ip), vehicle: saline): 186 % of control
T/C (endpoint: median survival time, dose: 40.0 mg/kg/injection, schedule: Q04DX003 (ip), vehicle: saline): 292 % of control
T/C (endpoint: median survival time, dose: 40.0 mg/kg/injection, schedule: Q08DX002 (ip), vehicle: saline): 256 % of control
T/C (endpoint: median survival time, dose: 48.0 mg/kg/injection, schedule: Q01DX009 (ip), vehicle: saline): 106 % of control
T/C (endpoint: median survival time, dose: 50.0 mg/kg/injection, schedule: Q01DX001 (iv), vehicle: saline): 157 % of control
T/C (endpoint: median survival time, dose: 50.0 mg/kg/injection, schedule: Q08DX002 (ip), vehicle: saline): 731 % of control
T/C (endpoint: median survival time, dose: 60.0 mg/kg/injection, schedule: Q01DX001 (ip), vehicle: saline): 731 % of control
T/C (endpoint: median survival time, dose: 60.0 mg/kg/injection, schedule: Q01DX005 (oral), vehicle: saline): 182 % of control
T/C (endpoint: median survival time, dose: 80.0 mg/kg/injection, schedule: Q01DX001 (ip), vehicle: saline): 97 % of control
T/C (endpoint: median survival time, dose: 80.0 mg/kg/injection, schedule: Q01DX001 (iv), vehicle: saline): 89 % of control
T/C (endpoint: median survival time, dose: 160.0 mg/kg/injection, schedule: Q01DX001 (oral), vehicle: saline): 175 % of control
T/C (endpoint: median survival time, dose: 240.0 mg/kg/injection, schedule: Q01DX001 (oral), vehicle: saline): 97 % of control

O=C([O][Sb]([O]C(=O)C(Cl)(Cl)Cl)([c]1ccccc1)([c]1ccccc1)[c]1ccccc1)C(Cl)(Cl)Cl
T/C [1]: 100 % of control
T/C [2]: 93 % of control
T/C [3]: 93 % of control

CCOC(=O)c1cc2c3n(c1=O)CCCC3C(c1ccccn1)OC2=O (configuration not stated)
T/C (endpoint: mean survival time, dose: 100.0 mg/kg/injection, schedule: Q04DX003 (ip), vehicle: saline): 100 % of control
T/C (endpoint: mean survival time, dose: 200.0 mg/kg/injection, schedule: Q04DX003 (ip), vehicle: saline): 107 % of control
T/C (endpoint: mean survival time, dose: 400.0 mg/kg/injection, schedule: Q04DX003 (ip), vehicle: saline): 102 % of control

CC1NC(=O)OC1(C)c1ccccc1 (configuration not stated)
T/C (endpoint: mean survival time, dose: 100.0 mg/kg/injection, schedule: Q04DX002 (ip), vehicle: saline with Tween-80): 103 % of control
T/C (endpoint: mean survival time, dose: 200.0 mg/kg/injection, schedule: Q04DX002 (ip), vehicle: saline with Tween-80): 98 % of control

CCNC(=O)OCc1cn2c(c1COC(=O)NCC)CCC2
T/C (endpoint: mean survival time, dose: 0.78 mg/kg/injection, schedule: Q04DX003 (ip), vehicle: other): 101 % of control
T/C (endpoint: mean survival time, dose: 1.56 mg/kg/injection, schedule: Q04DX003 (ip), vehicle: other): 87 % of control
T/C (endpoint: mean survival time, dose: 3.13 mg/kg/injection, schedule: Q04DX003 (ip), vehicle: other): 92 % of control
T/C (endpoint: mean survival time, dose: 6.25 mg/kg/injection, schedule: Q04DX003 (ip), vehicle: other): 92 % of control
T/C (endpoint: mean survival time, dose: 12.5 mg/kg/injection, schedule: Q04DX003 (ip), vehicle: other): 97 % of control

COc1ccc(OC)c(C(=O)CCl)c1
T/C [4]: 100 % of control
T/C [1]: 96 % of control
T/C [5]: 102 % of control
T/C [2]: 101 % of control
T/C [3]: 92 % of control

COC1(c2ccccc2)C(c2ccccc2)=CC(=O)/C1=C\c1ccccc1 (configuration not stated)
T/C [1]: 98 % of control
T/C [2]: 91 % of control
T/C [3]: 86 % of control

O=C(NCCF)NC1CCSc2ccccc21 (configuration not stated)
T/C (endpoint: mean survival time, dose: 75.0 mg/kg/injection, schedule: Q01DX001 (ip), vehicle: other): 101 % of control
T/C (endpoint: mean survival time, dose: 150.0 mg/kg/injection, schedule: Q01DX001 (ip), vehicle: other): 103 % of control

CC(C)NC(=O)OCc1c(COC(=O)NC(C)C)c(-c2ccc(Cl)c(Cl)c2)n2c1CCC2
T/C (endpoint: mean survival time, dose: 6.25 mg/kg/injection, schedule: Q01DX009 (ip), vehicle: distilled water + Tween-80): 115 % of control
T/C (endpoint: mean survival time, dose: 6.25 mg/kg/injection, schedule: Q01DX009 (ip), vehicle: saline with Tween-80): 103 % of control
T/C (endpoint: mean survival time, dose: 12.5 mg/kg/injection, schedule: Q01DX009 (ip), vehicle: distilled water + Tween-80): 118 % of control
T/C (endpoint: mean survival time, dose: 12.5 mg/kg/injection, schedule: Q01DX009 (ip), vehicle: saline with Tween-80): 116 % of control
T/C (endpoint: mean survival time, dose: 25.0 mg/kg/injection, schedule: Q01DX009 (ip), vehicle: saline with Tween-80): 121 % of control
T/C [4]: 89 % of control
T/C (endpoint: median survival time, dose: 50.0 mg/kg/injection, schedule: Q01DX005 (ip), vehicle: saline with Tween-80): 151 % of control
T/C (endpoint: median survival time, dose: 100.0 mg/kg/injection, schedule: Q01DX005 (ip), vehicle: saline with Tween-80): 179 % of control
T/C (endpoint: median survival time, dose: 200.0 mg/kg/injection, schedule: Q01DX005 (ip), vehicle: saline with Tween-80): 190 % of control
T/C (endpoint: median survival time, dose: 800.0 mg/kg/injection, schedule: Q01DX005 (ip), vehicle: saline with Tween-80): 102 % of control

CCOC(=O)Nc1cc2c(c(N)n1)N=C(CN(C)c1ccccc1)CN2
T/C (endpoint: mean survival time, dose: 6.25 mg/kg/injection, schedule: Q01DX009 (ip), vehicle: Klucel (hydroxypropylcellulose) (HPC)): 110 % of control
T/C (endpoint: mean survival time, dose: 12.5 mg/kg/injection, schedule: Q01DX009 (ip), vehicle: Klucel (hydroxypropylcellulose) (HPC)): 87 % of control

Nc1ncc(C(=O)c2ccccc2)cc1[N+](=O)[O-]
T/C [1]: 96 % of control
T/C [2]: 96 % of control

O=S(=O)(O)C(I)S(=O)(=O)O
T/C (endpoint: mean survival time, dose: 100.0 mg/kg/injection, schedule: Q01DX001 (ip), vehicle: saline): 97 % of control
T/C (endpoint: mean survival time, dose: 200.0 mg/kg/injection, schedule: Q01DX001 (ip), vehicle: saline): 102 % of control
T/C (endpoint: mean survival time, dose: 400.0 mg/kg/injection, schedule: Q01DX001 (ip), vehicle: saline): 114 % of control

CCOC(=O)C(C#N)N=Nc1ccccc1 (configuration not stated)
T/C [4]: 95 % of control
T/C [5]: 95 % of control
T/C [6]: 95 % of control

O[Si](O)([O][Sn]([c]1ccccc1)([c]1ccccc1)[c]1ccccc1)[O][Sn]([c]1ccccc1)([c]1ccccc1)[c]1ccccc1
T/C (endpoint: mean survival time, dose: 0.39 mg/kg/injection, schedule: Q01DX009 (ip), vehicle: saline): 94 % of control
T/C (endpoint: mean survival time, dose: 0.78 mg/kg/injection, schedule: Q01DX009 (ip), vehicle: saline): 94 % of control
T/C (endpoint: mean survival time, dose: 1.56 mg/kg/injection, schedule: Q01DX009 (ip), vehicle: saline): 105 % of control
T/C (endpoint: mean survival time, dose: 6.25 mg/kg/injection, schedule: Q01DX009 (ip), vehicle: saline): 106 % of control
T/C (endpoint: mean survival time, dose: 12.5 mg/kg/injection, schedule: Q01DX009 (ip), vehicle: saline): 100 % of control

CCOc1ccc(CO)cc1
T/C [4]: 104 % of control
T/C [5]: 98 % of control
T/C [6]: 108 % of control

c1ccc2[nH]c(CCCCCCCCc3nc4ccccc4[nH]3)nc2c1
T/C [4]: 102 % of control
T/C [5]: 104 % of control

O=C(O)C1CCC(C(=O)O)CC1 (configuration not stated)
T/C [4]: 95 % of control
T/C [5]: 91 % of control
T/C [6]: 87 % of control
